The text below walks through data of patent publication US11377425B1, “Small molecule modulators of IL-17” (LEO Pharma A/S, priority 2018, dated 2022).

For this test, the target named is T1, human IL-17AA (Homo sapiens, UniProt Q16552).
T1 construct: host or cells: HEK (human embryonic kidney) cells
T1 sequence (Q16552 24-155): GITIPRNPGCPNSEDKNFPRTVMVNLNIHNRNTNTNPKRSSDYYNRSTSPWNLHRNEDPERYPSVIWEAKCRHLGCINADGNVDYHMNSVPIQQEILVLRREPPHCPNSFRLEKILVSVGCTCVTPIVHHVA
Description: IL-8 release assay in human epithelial keratinocytes adult (HEKa). The test is classed as cell-based. The settings on record: HEKa cells, 3 ng/mL HEK-human IL-17AA + 10 ng/mL human TNFalpha; read-out: Rel EC50 IL-8 release assay. A digest of the protocol:
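IL-8 release, quantified by HTRF and normalized to controls, reports IL-17 signaling in HEKa cells treated with compound plus final 3 ng/mL IL-17AA (HEK-derived) and 10 ng/mL TNF-alpha for 68-72 h; TNF-alpha-only wells set 100% inhibition. Four-parameter logistic fits (r^2>0.9) give relative IC50 and Emax; PrestoBlue flags cytotoxicity.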

Structures are written as SMILES.

The term EC50 denotes the concentration that produces a half-maximal response. `Cn1cncc1-c1ccc(NC(=O)[C@@H](NC(=O)c2ccnn2C)C(c2ccccc2)c2ccccc2)cc1` [Example 346, N-[(1S)-1-benzhydryl-2-[4-(3-methylimidazol-4-yl)anilino]-2-oxo-ethyl]-2-methyl-pyrazole-3-carboxamide]: the EC50 lay within 100 to 1000 nM.

Regarding `Cn1cncc1-c1ccc(NC(=O)[C@@H](NC(=O)C2(F)CC2)C(c2ccccc2)c2ccccc2)cc1` [Example 347, N-[(1S)-1-benzhydryl-2-[4-(3-methylimidazol-4-yl)anilino]-2-oxo-ethyl]-1-fluoro-cyclopropanecarboxamide], the concentration for a half-maximal effect (EC50) lay within 100 to 1000 nM.

Consider `Cn1cnnc1-c1ccc(NC(=O)[C@@H](NC(=O)c2cnnn2-c2ccccc2)C2CCCCC2)cc1` [Example 348, N-[(1S)-1-cyclohexyl-2-[4-(4-methyl-1,2,4-triazol-3-yl)anilino]-2-oxo-ethyl]-3-phenyl-triazole-4-carboxamide], for which the concentration giving a half-maximal response (EC50) was greater than 1000 nM.

In the case of `CC(C)n1nccc1C(=O)N[C@H](C(=O)Nc1ccc(-c2nncn2C)cc1)C1CCCCCC1` [Example 349, N-[(1S)-1-cycloheptyl-2-[4-(4-methyl-1,2,4-triazol-3-yl)anilino]-2-oxo-ethyl]-2-isopropyl-pyrazole-3-carboxamide], the EC50 was 100 to 1000 nM.

Regarding `Cn1cnnc1-c1ccc(NC(=O)[C@@H](NC(=O)c2ccnn2C)C2CCCCCC2)cc1` [Example 350, N-[(1S)-1-cycloheptyl-2-[4-(4-methyl-1,2,4-triazol-3-yl)anilino]-2-oxo-ethyl]-2-methyl-pyrazole-3-carboxamide], the EC50 is greater than 1000 nM.

Turning to `CC(C)n1nccc1C(=O)N[C@H](C(=O)Nc1ccc(-c2nncn2C)cc1)C1CCCCC1` [Example 351, N-[(1S)-1-cyclohexyl-2-[4-(4-methyl-1,2,4-triazol-3-yl)anilino]-2-oxo-ethyl]-2-isopropyl-pyrazole-3-carboxamide], the EC50 was 100 to 1000 nM.

Consider `Cn1cnnc1-c1ccc(NC(=O)[C@@H](NC(=O)c2ccnn2C)C2CCCCC2)cc1` [Example 352, N-[(1S)-1-cyclohexyl-2-[4-(4-methyl-1,2,4-triazol-3-yl)anilino]-2-oxo-ethyl]-2-methyl-pyrazole-3-carboxamide], for which the EC50 is greater than 1000 nM.

`Cn1cnnc1-c1ccc(NC(=O)[C@@H](NC(=O)C2(F)CC2)C(c2ccccc2)c2ccccc2)cc1` [Example 353, N-[(1S)-1-benzhydryl-2-[4-(4-methyl-1,2,4-triazol-3-yl)anilino]-2-oxo-ethyl]-1-fluoro-cyclopropanecarboxamide]: the EC50 was greater than 1000 nM.

`Cn1cnnc1-c1ccc(NC(=O)[C@@H](NC(=O)c2ccnn2C)C(c2ccccc2)c2ccccc2)cc1` [Example 354, N-[(1S)-1-benzhydryl-2-[4-(4-methyl-1,2,4-triazol-3-yl)anilino]-2-oxo-ethyl]-2-methyl-pyrazole-3-carboxamide]: the EC50 is greater than 1000 nM.

With `COc1n[nH]c(C)c1-c1ccc(NC(=O)[C@@H](NC(=O)c2ccnn2C)C2CCCCC2)cc1` [Example 358, N-[(1S)-1-cyclohexyl-2-[4-(5-methoxy-3-methyl-1H-pyrazol-4-yl)anilino]-2-oxo-ethyl]-2-methyl-pyrazole-3-carboxamide], the concentration for a half-maximal effect (EC50) is greater than 1000 nM.

As for `CCOc1n[nH]c(C)c1-c1ccc(NC(=O)[C@@H](NC(=O)c2ccnn2C)C2CCCCC2)cc1` [Example 359, N-[(1S)-1-cyclohexyl-2-[4-(5-ethoxy-3-methyl-1H-pyrazol-4-yl)anilino]-2-oxo-ethyl]-2-methyl-pyrazole-3-carboxamide], the EC50 lay within 100 to 1000 nM.

Take `Cc1noc(C)c1-c1ccc(NC(=O)[C@@H](NC(=O)c2ccnn2C(C)C)C(C2CC2)C2CC2)cc1` [Example 360, N-[(1S)-1-(dicyclopropylmethyl)-2-[4-(3,5-dimethylisoxazol-4-yl)anilino]-2-oxo-ethyl]-2-isopropyl-pyrazole-3-carboxamide]: the EC50 was less than 100 nM.

As for `Cc1ncoc1-c1ccc(NC(=O)[C@@H](NC(=O)c2ccnn2C(C)C)C(C2CC2)C2CC2)cc1` [Example 361, N-[(1S)-1-(dicyclopropylmethyl)-2-[4-(4-methyloxazol-5-yl)anilino]-2-oxo-ethyl]-2-isopropyl-pyrazole-3-carboxamide], the EC50 was 100 to 1000 nM.

`CCn1nccc1C(=O)N[C@H](C(=O)Nc1ccc(-c2c(C)ncn2C)c(O)c1)C(C1CC1)C1CC1` [Example 362, N-[(1S)-1-(dicyclopropylmethyl)-2-[4-(3,5-dimethylimidazol-4-yl)-3-hydroxy-anilino]-2-oxo-ethyl]-2-ethyl-pyrazole-3-carboxamide]: the EC50 lay within 100 to 1000 nM.

As for `Cc1ncn(C)c1-c1ccc(NC(=O)[C@@H](NC(=O)c2ccnn2C(C)C)C(C2CC2)C2CC2)cc1O` [Example 363, N-[(1S)-1-(dicyclopropylmethyl)-2-[4-(3,5-dimethylimidazol-4-yl)-3-hydroxy-anilino]-2-oxo-ethyl]-2-isopropyl-pyrazole-3-carboxamide], the EC50 was less than 100 nM.

With `CCn1nccc1C(=O)N[C@H](C(=O)Nc1ccc(-c2c(C)cnn2C)c(O)c1)C(C1CC1)C1CC1` [Example 364, N-[(1S)-1-(dicyclopropylmethyl)-2-[4-(2,4-dimethylpyrazol-3-yl)-3-hydroxy-anilino]-2-oxo-ethyl]-2-ethyl-pyrazole-3-carboxamide], the EC50 was less than 100 nM.

In the case of `Cc1cnn(C)c1-c1ccc(NC(=O)[C@@H](NC(=O)c2ccnn2C(C)C)C(C2CC2)C2CC2)cc1O` [Example 365, N-[(1S)-1-(dicyclopropylmethyl)-2-[4-(2,4-dimethylpyrazol-3-yl)-3-hydroxy-anilino]-2-oxo-ethyl]-2-isopropyl-pyrazole-3-carboxamide], the EC50 was less than 100 nM.

As to `Cc1cnn(C)c1-c1ccc(NC(=O)[C@@H](NC(=O)c2ccnn2C(C)CO)C(C2CC2)C2CC2)cc1O` (stereo partly drawn) [Example 366, N-[(1S)-1-(dicyclopropylmethyl)-2-[4-(2,4-dimethylpyrazol-3-yl)-3-hydroxy-anilino]-2-oxo-ethyl]-2-(2-hydroxy-1-methyl-ethyl)pyrazole-3-carboxamide], the EC50 lay within 100 to 1000 nM.

For `Cc1cnn(C)c1-c1ccc(NC(=O)[C@@H](NC(=O)c2ccnn2C(C)C)C(C2CC2)C2CC2)cc1` [Example 367, N-[(1S)-1-(dicyclopropylmethyl)-2-[4-(2,4-dimethylpyrazol-3-yl)anilino]-2-oxo-ethyl]-2-isopropyl-pyrazole-3-carboxamide], the EC50 is less than 100 nM.

In the case of `CC(C)n1nccc1C(=O)N[C@H](C(=O)Nc1ccc(-c2c(C3(O)CC3)cnn2C)cc1)C(C1CC1)C1CC1` [Example 368, N-[(1S)-1-(dicyclopropylmethyl)-2-[4-[4-(1-hydroxycyclopropyl)-2-methyl-pyrazol-3-yl]anilino]-2-oxo-ethyl]-2-isopropyl-pyrazole-3-carboxamide], the EC50 lay in the range of 100 to 1000 nM.

With `CCn1nccc1C(=O)N[C@H](C(=O)Nc1ccc(-n2cnc(C)c2C)cc1)C(C1CC1)C1CC1` [Example 369, N-[(1S)-1-(dicyclopropylmethyl)-2-[4-(4,5-dimethylimidazol-1-yl)anilino]-2-oxo-ethyl]-2-ethyl-pyrazole-3-carboxamide], the EC50 lay within 100 to 1000 nM.

For `CCn1nccc1C(=O)N[C@H](C(=O)Nc1ccc(-n2c(C)c[nH]c2=O)cc1)C(C1CC1)C1CC1` [Example 370, N-[(1S)-1-(dicyclopropylmethyl)-2-[4-(4-methyl-2-oxo-1H-imidazol-3-yl)anilino]-2-oxo-ethyl]-2-ethyl-pyrazole-3-carboxamide], the EC50 was greater than 1000 nM.

For `CC(C)n1nccc1C(=O)N[C@H](C(=O)Nc1ccc(-c2c(C(F)(F)F)ncn2C)cc1)C1CCCCC1` [Example 371A, N-[(1S)-1-cyclohexyl-2-[4-[3-methyl-5-(trifluoromethyl)imidazol-4-yl]anilino]-2-oxo-ethyl]-2-isopropyl-pyrazole-3-carboxamide], the EC50 fell in the range of 100 to 1000 nM.

Consider `CC(C)n1nccc1C(=O)N[C@H](C(=O)Nc1ccc(-c2ncn(C)c2C(F)(F)F)cc1)C1CCCCC1` [Example 371B, N-[(1S)-1-cyclohexyl-2-[4-[1-methyl-5-(trifluoromethyl)imidazol-4-yl]anilino]-2-oxo-ethyl]-2-isopropyl-pyrazole-3-carboxamide], for which the concentration for a half-maximal effect (EC50) is greater than 1000 nM.

Regarding `Cn1cncc1-c1ccc(NC(=O)[C@@H](NC(=O)c2ccnn2C)[C@@H]2CCCc3ccccc32)cc1` [Example 375, 2-Methyl-N-[(1S)-2-[4-(3-methylimidazol-4-yl)anilino]-2-oxo-1-[(1R)-tetralin-1-yl]ethyl]pyrazole-3-carboxamide], the EC50 was greater than 1000 nM.

For the compound `Cn1cncc1-c1ccc(NC(=O)[C@@H](NC(=O)c2ccnn2C)[C@@H]2CCc3ccccc32)cc1` [Example 376, N-[(1S)-1-[(1R)-indan-1-yl]-2-[4-(3-methylimidazol-4-yl)anilino]-2-oxo-ethyl]-2-methyl-pyrazole-3-carboxamide], the EC50 is greater than 1000 nM.

In the case of `Cn1cncc1-c1ccc(NC(=O)[C@@H](NC(=O)c2ccnn2C)[C@H]2CCc3ccccc32)cc1` [Example 377, N-[(1S)-1-[(1S)-indan-1-yl]-2-[4-(3-methylimidazol-4-yl)anilino]-2-oxo-ethyl]-2-methyl-pyrazole-3-carboxamide], the EC50 fell in the range of 100 to 1000 nM.

As for `Cc1nccn1-c1ccc(NC(=O)[C@@H](NC(=O)c2ccnn2C)[C@@H]2CCCc3ccccc32)cc1` [Example 378, 2-methyl-N-[(1S)-2-[4-(2-methylimidazol-1-yl)anilino]-2-oxo-1-[(1R)-tetralin-1-yl]ethyl]pyrazole-3-carboxamide], the EC50 is greater than 1000 nM.
